We go through one compound from patent US20070270464A1, “PRODRUGS OF CURCUMIN ANALOGS” (priority 2006, published 2007).

The nature of data set [1]: Photostability: appearance of aqueous solution under room light. The note with it: EF24-GSH: after 48 hours under room light; EF24: diluted aqueous solution, overnight. It counts as physicochemical.
Data set [2] has as its system MDA-MB-435 breast cancer cells. Nature of the data set: Photostability: cytotoxicity of solutions kept under room light, Neutral Red assay. It counts as cell-based, human. The note with it: EF24-GSH: 10 mM in sterile water, up to 48 hours under room light, FIG. 3; EF24: diluted aqueous solution, overnight. Here is the method: MDA-MB-435 breast cancer cells were seeded at 2×10^4 per well in a 96-well plate with DMEM medium supplemented with 10% FBS, plus antibiotics penicillin and streptomycin. After 24 hours, cells were treated with EF24-GSH in the presence of the above growth medium. EF24-GSH solutions were made fresh at 10 mM with sterile water and placed under room light in clear Eppendorf tubes for 30 min, 24 hours and 48 hours, respectively, before adding to the cells. Cell viability was determined after 48 hours of treatment with EF24-GSH conjugate using the Neutral Red assay.

For data set [3] the following is noted: background statement; cited from earlier work.
Data set [4] has as its system MDA-MB-231 human breast cancer cells. The following applies: MDA-MB-231 cells, background statement; cited from earlier work.
The test system of a further data set is tumor cell growth. The following applies: background statement; cited from earlier work.
For data set [5] the following is noted: background statement; cited from earlier work. This is another data set of the same source.
In data set [6] the test system is DU-145 human prostate cancer cells. The following applies: DU-145 cells, background statement; cited from earlier work.

Structures are written as SMILES.

Regarding `CC(=O)O.O=C1C(=Cc2ccccc2F)CNCC1=Cc1ccccc1F` [EF24, 3,5-Bis-(2-fluorobenzylidene)-piperidin-4-one, acetic acid salt], in data set [1], the “colour of the solution under room light” value is listed as “turns dark overnight”. The “cytotoxicity after exposure of the solution to room light” value in data set [2] is recorded as “severely compromised”. For the same compound, in data set [3], the photostability result is “poor photostability” and the water solubility result was “relatively insoluble in water”. Besides, the cell cycle arrest result in data set [4] is “G2/M arrest”. For the same compound, the “inhibition of tumor cell growth, potency compared with cisplatin” value in the data set on tumor cell growth was “higher potency than cisplatin”. In addition, the toxicity result in data set [5] is listed as “relatively little toxicity”. Further, the cell cycle arrest entry in data set [6] is recorded as “G2/M arrest”.
